According to patent US5708034A, “Substituted sulfonimidamides, processes for their preparation, their use as a medicament or diagnostic, and medicament comprising them” (Hoechst Aktiengesellschaft, priority 1995, dated 1998):
Counter-ions that a name gives are not always drawn.

target: T1, Na^+ /H^+ exchanger of rabbit erythrocytes (Oryctolagus cuniculus, UniProt P23791); experiment: Inhibition of the Na^+ /H^+ exchanger of rabbit erythrocytes (amiloride-sensitive Na^+ influx, flame photometry); format: cell-based, rabbit (White New Zealand); conditions: hyperosmolar salt-sucrose medium, pH 7.4, 37° C., sodium influx by flame photometry
T1 construct: determine the Na^+ influx into the erythrocytes via Na^+ /H^+ exchange by flame photometry; endogenous in cells; host or cells: erythrocytes from ear-artery blood of cholesterol-fed White New Zealand rabbits (animals from Ivanovas)
Description: Inhibition of the Na^+ /H^+ exchanger of rabbit erythrocytes
White New Zealand rabbits (Ivanovas) received a standard diet with 2% cholesterol for six weeks in order to activate Na^+ /H^+ exchange and thus to be able to determine the Na^+ influx into the erythrocytes via Na^+ /H^+ exchange by flame photometry. The blood was taken from the ear arteries and rendered incoagulable by means of 25 IU of potassium heparin. A part of each sample was used for the duplicate determination of the hematocrit by centrifugation. Aliquots of 100 μl in each case were used to measure the Na^+ starting content of the erythrocytes.
In order to determine the amiloride-sensitive sodium influx, 100 μl of each blood sample were incubated in each case in 5 ml of a hyperosmolar salt-sucrose medium (mmol/l: 140 NaCl, 3 KCl, 150 sucrose, 0.1 ouabain, 20 tris-hydroxymethylaminomethane) at pH 7.4 and 37° C. The erythrocytes were then washed three times with ice-cold MgCl2 ouabain solution (mmol/l: 112 MgCl2, 0.1 ouabain) and hemolyzed in 2.0 ml of distilled water. The intracellular sodium content was determined by flame photometry.
The net Na^+ influx was calculated from the difference between sodium starting values and the sodium content of the erythrocytes after incubation. The amiloride-inhibitable sodium influx resulted from the difference between the sodium content of the erythrocytes after incubation with and without amiloride 3×10^-4 mol/l. This procedure was also used in the case of the compounds according to the invention.

T1 sequence (P23791 whole entry): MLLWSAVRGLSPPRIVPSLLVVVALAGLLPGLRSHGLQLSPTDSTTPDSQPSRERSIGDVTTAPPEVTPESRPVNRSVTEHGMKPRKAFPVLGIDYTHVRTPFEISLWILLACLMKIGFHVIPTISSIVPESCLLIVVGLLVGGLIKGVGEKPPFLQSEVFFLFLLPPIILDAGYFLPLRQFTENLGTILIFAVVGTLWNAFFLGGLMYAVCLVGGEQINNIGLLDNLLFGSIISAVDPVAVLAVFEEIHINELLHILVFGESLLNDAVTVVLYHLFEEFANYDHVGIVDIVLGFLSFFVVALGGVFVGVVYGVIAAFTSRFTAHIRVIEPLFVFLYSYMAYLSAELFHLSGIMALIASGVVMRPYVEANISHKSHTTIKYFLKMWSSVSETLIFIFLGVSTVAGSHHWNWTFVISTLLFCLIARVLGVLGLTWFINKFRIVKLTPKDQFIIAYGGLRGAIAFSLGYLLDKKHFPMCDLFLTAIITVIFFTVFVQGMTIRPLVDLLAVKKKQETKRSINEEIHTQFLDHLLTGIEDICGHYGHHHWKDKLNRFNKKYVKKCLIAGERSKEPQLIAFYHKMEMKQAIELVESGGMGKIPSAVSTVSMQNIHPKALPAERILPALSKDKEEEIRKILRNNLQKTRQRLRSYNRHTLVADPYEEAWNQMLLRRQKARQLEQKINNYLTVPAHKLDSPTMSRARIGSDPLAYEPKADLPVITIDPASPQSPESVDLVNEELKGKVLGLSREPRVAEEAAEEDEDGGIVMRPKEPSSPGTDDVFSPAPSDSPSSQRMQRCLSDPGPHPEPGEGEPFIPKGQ

IC50 [µM] | Structure (SMILES)
6000 | CN=S(=O)(NC)c1cc(C(=O)N=C(N)N)ccc1C(C)C (stereo not shown) [Example 4, 2-isopropyl-5-guanidinocarbonylbenzenesulfonic acid N,N'-dimethylimidamide]
2000 | CS(=O)(=O)c1cc(C(=O)N=C(N)N)ccc1NS(=N)(=O)c1ccc(F)cc1 (stereo not shown) [Example 3, 3-Methylsulfonyl-4-(4-fluorobenzenesulfimidamoyl)benzoylguanidine]
53 | CCN=S(=O)(c1ccc(F)cc1)N(CC)c1ccc(C(=O)N=C(N)N)cc1C(F)(F)F (stereo not shown) [Example 2, 4-(4-Fluorobenzene-N,N'-diethylsulfimidamoyl)-3-trifluoro-methylbenzoylguanidine, dihydrochloride]
680 | CCN=S(=O)(c1ccc(F)cc1)N(CC)c1ccc(C(=O)N=C(N)N)cc1S(C)(=O)=O (stereo not shown) [Example 1, 4-(4-Fluorobenzene-N,N'-diethylsulfimidamoyl)-3-methyl-sulfonylbenzoylguanidine, dihydrochloride]
